From US20240217959A1, “New (Homo)Piperidinyl Heterocycles as Sigma Ligands” (ACONDICIONAMIENTO TARRASENSE, priority 2021, published 2024)

What was measured:
[1] = target: T1, human σ1 receptor (Homo sapiens, UniProt Q99720); experiment: Human σ1 receptor radioligand assay ([3H](+)-pentazocine); details: transfected HEK-293 membranes, 5 nM [3H](+)-pentazocine, 37° C. 120 minutes; read-out: Binding σ-1
T1 construct: expressed in transfected cells; host or cells: HEK-293
Description: Transfected HEK-293 membranes (7 μg) were incubated with 5 nM of [^3H](+)-pentazocine in assay buffer containing Tris-HCl 50 mM at pH 8. NBS (non-specific binding) was measured by adding 10 μM haloperidol. The binding of the test compound was measured at either one concentration (% inhibition at 1 or 10 μM) or five different concentrations to determine affinity values (Ki). Plates were incubated at 37° C. for 120 minutes. After the incubation period, the reaction mix was then transferred to MultiScreen HTS, FC plates (Millipore), filtered and plates were washed 3 times with ice-cold 10 mM Tris-HCL (pH 7.4). Filters were dried and counted at approximately 40% efficiency in a MicroBeta scintillation counter (Perkin-Elmer) using EcoScint liquid scintillation cocktail.

[2] = target: T2, human σ2/TMEM97 receptor (Homo sapiens, UniProt Q5BJF2); experiment: Binding assay to human σ2/TMEM97 receptor ([3H]-DTG); details: transfected HEK-293 membranes, 10 nM [3H]-DTG, 25° C. 120 minutes; read-out: Binding σ-2
T2 construct: expressed in transfected cells; host or cells: HEK-293
T2 sequence (Q5BJF2 whole entry): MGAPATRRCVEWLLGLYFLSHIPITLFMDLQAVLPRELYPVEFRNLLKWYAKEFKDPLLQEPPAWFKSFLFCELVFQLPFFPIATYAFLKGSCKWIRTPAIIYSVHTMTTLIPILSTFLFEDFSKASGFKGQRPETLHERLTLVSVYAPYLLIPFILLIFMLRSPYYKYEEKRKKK
Description: Transfected HEK-293 membranes (15 μg) were incubated with 10 nM [^3H]-1,3-Di-o-tolylguanidine (DTG) in assay buffer containing Tris-HCl 50 mM at pH 8.0. NSB (non-specific binding) was measured by adding 10 μM haloperidol. The binding of the test compound was measured at either one concentration (% inhibition at 1 or 10 μM) or five different concentrations to determine affinity values (Ki). Plates were incubated at 25° C. for 120 minutes. After the incubation period, the reaction mix was transferred to MultiScreen HTS, FC plates (Millipore), filtered and washed 3 times with ice-cold 10 mM Tris-HCL (pH 8.0). Filters were dried and counted at approximately 40% efficiency in a MicroBeta scintillation counter (Perkin-Elmer) using EcoScint liquid scintillation cocktail.

T1 sequence (Q99720 whole entry): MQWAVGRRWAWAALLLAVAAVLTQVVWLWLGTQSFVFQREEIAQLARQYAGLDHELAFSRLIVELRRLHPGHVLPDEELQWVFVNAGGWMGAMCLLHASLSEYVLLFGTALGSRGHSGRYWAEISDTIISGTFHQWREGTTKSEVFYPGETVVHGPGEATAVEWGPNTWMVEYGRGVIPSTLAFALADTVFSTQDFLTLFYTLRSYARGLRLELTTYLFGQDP

| SMILES | Ki [1] | Ki [2] |
| --- | --- | --- |
| CCc1ncc(-c2cc(C)no2)c(C2CCN(CC(=O)N3CCCOCC3)CC2)n1 [Example 3, 2-(4-(2-Ethyl-5-(3-methylisoxazol-5-yl)pyrimidin-4-yl)piperidin-1-yl)-1-(1,4-oxazepan-4-yl)ethanone] | > 1000 nM | < 100 nM |
| CCc1ncc(-c2cccc(C)n2)c(C2CCN(CC(=O)N3CCOCC3)CC2)n1 [Example 14, 2-(4-(2-Ethyl-5-(6-methylpyridin-2-yl)pyrimidin-4-yl)piperidin-1-yl)-1-morpholinoethan-1-one] | > 1000 nM | 100 to 500 nM |
| Cc1cc(-c2cnc(C3CC3)nc2C2CCN(CC(=O)N3CCOCC3)CC2)on1 [Example 1, 2-(4-(2-Cyclopropyl-5-(3-methylisoxazol-5-yl)pyrimidin-4-yl)piperidin-1-yl)-1-morpholinoethanone] | 500 to 1000 nM | < 100 nM |
| CCCc1ncc(-c2cc(C)no2)c(C2CCN(CC(=O)N3CCOCC3)CC2)n1 [Example 12, 2-(4-(5-(3-Methylisoxazol-5-yl)-2-propylpyrimidin-4-yl)piperidin-1-yl)-1-morpholinoethan-1-one] | > 1000 nM | < 100 nM |
| CCc1ncc(-c2nccn2C)c(C2CCN(CC(=O)N3CCOCC3)CC2)n1 [Example 16, 2-(4-(2-Ethyl-5-(1-methyl-1H-imidazol-2-yl)pyrimidin-4-yl)piperidin-1-yl)-1-morpholinoethan-1-one] | > 1000 nM | 500 to 1000 nM |
| CCc1ncc(-c2cc(C)no2)c(C2CCN(CCN3CCOCC3)CC2)n1 [Example 10, 4-(2-(4-(2-Ethyl-5-(3-methylisoxazol-5-yl)pyrimidin-4-yl)piperidin-1-yl)ethyl)morpholine] | 100 to 500 nM | < 100 nM |
| CCc1ncc(-c2cc(C)no2)c([C@@H]2CCCN(CC(=O)N3CCOCC3)CC2)n1 [Example 17, (R)-2-(4-(2-Ethyl-5-(3-methylisoxazol-5-yl)pyrimidin-4-yl)azepan-1-yl)-1-morpholinoethan-1-one] | 100 to 500 nM | 100 to 500 nM |
| Cc1cc(-c2cnc(C(C)C)nc2C2CCN(CC(=O)N3CCOCC3)CC2)on1 [Example 2, 2-(4-(2-Isopropyl-5-(3-methylisoxazol-5-yl)pyrimidin-4-yl)piperidin-1-yl)-1-morpholinoethanone] | > 1000 nM | < 100 nM |
| CCc1ncc(-c2cc(C)no2)c(C2CCN(CC(=O)N3CCCN(C)CC3)CC2)n1 [Example 7, 2-(4-(2-Ethyl-5-(3-methylisoxazol-5-yl)pyrimidin-4-yl)piperidin-1-yl)-1-(4-methyl-1,4-diazepan-1-yl)ethanone] | > 1000 nM | < 100 nM |
| CCc1ncc(-c2cc(C)no2)c(C2CCN(CC(=O)N3CCOCC3)CC2)n1 [Example 5, 2-(4-(2-Ethyl-5-(3-methylisoxazol-5-yl)pyrimidin-4-yl)piperidin-1-yl)-1-morpholinoethanone] | > 1000 nM | < 100 nM |
| CCc1ncc(-c2cc(C)no2)c(C2CCN(CC(=O)N3CCCCC3)CC2)n1 [Example 11, 2-(4-(2-Ethyl-5-(3-methylisoxazol-5-yl)pyrimidin-4-yl)piperidin-1-yl)-1-(piperidin-1-yl)ethan-1-one] | 500 to 1000 nM | < 100 nM |
| Cc1ccc(-c2ccnc(C)n2)c(C2CCN(CC(=O)N3CCOCC3)CC2)n1 [Example 19, 2-(4-(6-Methyl-3-(2-methylpyrimidin-4-yl)pyridin-2-yl)piperidin-1-yl)-1-morpholinoethan-1-one] | 500 to 1000 nM | 500 to 1000 nM |
| CCc1ncc(-c2ccncc2)c(C2CCN(CC(=O)N3CCOCC3)CC2)n1 [Example 15, 2-(4-(2-Ethyl-5-(pyridin-4-yl)pyrimidin-4-yl)piperidin-1-yl)-1-morpholinoethan-1-one] | 500 to 1000 nM | 500 to 1000 nM |
| Cc1cc(-c2cnc(C(F)(F)F)nc2C2CCN(CC(=O)N3CCOCC3)CC2)on1 [Example 8, 2-(4-(5-(3-Methylisoxazol-5-yl)-2-(trifluoromethyl)pyrimidin-4-yl)piperidin-1-yl)-1-morpholinoethanone] | > 1000 nM | < 100 nM |
| CCc1ncc(-c2cc(C)no2)c(C2CCN(CC(=O)N3CCC4(CCOC4)CC3)CC2)n1 [Example 4, 2-(4-(2-Ethyl-5-(3-methylisoxazol-5-yl)pyrimidin-4-yl)piperidin-1-yl)-1-(2-oxa-8-azaspiro[4.5]decan-8-yl)ethanone] | > 1000 nM | < 100 nM |
| CCc1ncc(-c2cc(C)no2)c([C@H]2CCCN(CC(=O)N3CCOCC3)CC2)n1 [Example 18, (S)-2-(4-(2-Ethyl-5-(3-methylisoxazol-5-yl)pyrimidin-4-yl)azepan-1-yl)-1-morpholinoethan-1-one] | 500 to 1000 nM | < 100 nM |
| CCc1ncc(-c2cc(C)no2)c(C2CCN(CCC(=O)N3CCOCC3)CC2)n1 [Example 9, 3-(4-(2-Ethyl-5-(3-methylisoxazol-5-yl)pyrimidin-4-yl)piperidin-1-yl)-1-morpholinopropan-1-one] | > 1000 nM | < 100 nM |
| CCc1ncc(-c2ccccn2)c(C2CCN(CC(=O)N3CCOCC3)CC2)n1 [Example 13, 2-(4-(2-Ethyl-5-(pyridin-2-yl)pyrimidin-4-yl)piperidin-1-yl)-1-morpholinoethan-1-one] | > 1000 nM | 100 to 500 nM |
| CCc1ncc(-c2cc(C)no2)c(C2CCN(CC(=O)N3CCC(F)(F)CC3)CC2)n1 [Example 6, 1-(4,4-Difluoropiperidin-1-yl)-2-(4-(2-ethyl-5-(3-methylisoxazol-5-yl)pyrimidin-4-yl)piperidin-1-yl)ethanone] | 500 to 1000 nM | < 100 nM |
